# “And” between values parts separate entries of the source, which are not always exact repeats. Equal values may be shown once. Read-outs that look alike come from different tables or passages of the source.
# Key:
# C. pneumoniae strain K7 = test: C. pneumoniae inclusion count inhibition in infected HL cells (immunofluorescence); format: cell-based, Chlamydia pneumoniae; conditions: for inhibition at 5 µM / reduction in inclusion counts / inhibition against C. pneumoniae: added at 2 hpi, 72 h, 5 μM; for inhibition at 5 µM / IC50 / reduction in inclusion counts / inhibition against C. pneumoniae: strain K7, HL cells; for inhibition at 5 µM: read-out: reduction in inclusion counts / inhibition against C. pneumoniae; for IC50: read-out: IC50 (inclusion counts, dose-response); for concentration that inhibits infectivity and interferes with inclusions: human epithelial HL cells
# Experimental: Human epithelial HL cells were grown in a RPMI1640 medium supplemented with 7.5% fetal bovine serum (FBS), 2 mM L-glutamine and 20 μg/ml gentamicin sulfate. A clinical C. pneumoniae isolate Kajaani 7 (K7), originally isolated from a young person suffering from pneumonia was obtained from Professor Pekka Saikku (Department of Medicinal Microbiology, Institute of Diagnostics, University of Oulu, Finland) and a cardiovascular C. pneumoniae isolate CV-6 was obtained from Professor Matthias Maass (Paracelsus Medical University, Salzburg, Austria). The reference strains CWL-029 (VR-1310) and AR-39 (ATCC 53592) were obtained from American Type Culture Collection (ATCC). All strains were propagated in HL cells as previously described. The K7 strain was used in all studies whereas CV-6 and the ATCC reference strains were used to confirm our initial compound screening data.
# (§1) For all experiments applying immunofluorescence, HL cells were seeded in 24-well plates with coverslips at density of 4 x 10^5 cells/well and incubated overnight before infection. The cells were inoculated with C. pneumoniae at multiplicity of infection (MOI) 0.2 in the cell growth media supplemented with 1 μg/ml cycloheximide to enhance chlamydial growth. The inoculated cultures were centrifuged at 550 g at 4°C for 1 h and incubated at 37°C for 1 h. Inocula were removed, fresh medium was added into wells and the plates were incubated for 70 h. Afterwards the cultures were fixed with methanol and the coverslips were stained with Pathfinder Chlamydia cell culture confirmation system (Bio-Rad) based on a genus-specific anti-LPS antibody to visualize the host cells and chlamydial inclusions. Detailed protocols for the infection and staining can be found in [29]. Unless otherwise stated in the text, the derivatives were added into the culture medium at 2 hours post infection (hpi), i.e., at the time when inocula were removed. […] DMSO concentration was adjusted to 0.1% in all experiments.
# All experiments were carried out as four replicates in minimum and the inclusion counts were determined as mean ± SEM of 4 eye fields per coverslip. For statistical analysis GraphPad Prism software v. 5.0 and Student’s t-test (p < 0.05) were applied.
# HL cells = test: Resazurin cell viability assay; format: cell-based, human; conditions: 5 μM, 72 h
# Experimental: (§2) HL cells were seeded into 96-well plates at density […] and incubated overnight before starting the exposure. The β^2,2-amino acid derivatives were added at concentrations of 5 μM either in the presence or absence of 1 μg/ml cycloheximide in a final volume of 200 μl and the plates were incubated for 72 h. The resazurin assay was performed as described in Karlsson et al..
# C. pneumoniae [1] = test: Infectious progeny assay; format: cell-based, Chlamydia pneumoniae; conditions: for inclusion vacuole counts in the second passage of infection vs untreated control: 5 μM; for suppression of infectious progeny production: administered at 6 hpi or later (data not shown)
# Experimental: To measure the effects of the β^2,2-amino acid derivatives on production of new infectious progeny by C. pneumoniae, HL cells were infected with C. pneumoniae as described above in the presence of the derivatives (at a concentration of 5 μM). At 72 hpi, medium was removed from the wells and 200 μl fresh medium was added. The cells were scraped off and then further lysed by vortexing with glass beads, and the lysates were used to infect fresh HL cell monolayers. Inclusion counts in the second passage of infection were determined with immunofluorescent staining as described above, and control wells fixed and stained after the first infectious cycle were used as internal controls.
# C. pneumoniae EBs = test: Elementary body infectivity assay; format: cell-based; conditions: Chlamydia pneumoniae; EBs treated with 5 μM for 1 h before inoculation of HL cells; read-out: inhibition of EB infectivity
# Experimental: C. pneumoniae EBs were suspended into the HL cell growth medium supplemented with cycloheximide at 400 000 inclusion forming units (IFU)/ml and exposed to 5 μM of the derivatives A1—A6 for 1 h at 4°C. Immediately afterwards, aliquots of the EBs suspensions were used to infect HL cell monolayers as described above (MOI 0.2), resulting in typically 40–60 inclusions per eye field in nontreated control infections.
# C. pneumoniae [2] = test: Delayed administration assay; format: cell-based, Chlamydia pneumoniae; conditions: for reduction in inclusion vacuole counts: 3 μM, added at 6 hpi or later; for inhibition at 3 µM: Chlamydia pneumoniae, added at 2 hpi, read-out: inhibition of inclusion vacuole counts
# Experimental: as §1
# HL cells were infected as described above and treated with derivatives at concentrations of 3 μM in order to cause inhibition of infection above 50%. The treatment of the infected cells was delayed by 4, 10 and 22 h and inclusions counts were subsequently performed as described above.
# [3] = test system: C. pneumoniae inclusions in HL cells; format: cell-based, Chlamydia pneumoniae; conditions: 2.5 μM added at 2 hpi
# Experimental: HL cells were seeded in 6-well plates at 2 x 10^6 cells per well and cultured overnight. The cell monolayers were infected with C. pneumoniae (MOI 1) and treated with 2.5 μM of derivative A2 by adding it to the culture medium at 2 hpi based on findings in the dose-response assay. Untreated and uninfected HL control cells were incubated concurrently. The cells were pre-fixed at 24, 48 and 72 hpi with Karnovsky's fixative at 4°C, overnight. The samples were further processed for TEM as described in [30].
# [4] = Resazurin cell viability assay; format: cell-based, human; conditions: human, HL cells
# Experimental: as §2
compound,measurement,setting,value
NCCNC(=O)C(CN)(Cc1ccc(C(F)(F)F)cc1)Cc1ccc(C(F)(F)F)cc1 [A1],inhibition at 5 µM,C. pneumoniae strain K7; Chlamydia pneumoniae,95.6%
same,IC50,C. pneumoniae strain K7; Chlamydia pneumoniae,2 µM and 1.4 µg/mL
same,concentration that inhibits infectivity and interferes with inclusions,C. pneumoniae strain K7,below 5 μM
same,effect on host HL cell viability (in words),HL cells,no substantial effect on host HL cell viability
same,inclusion vacuole counts in the second passage of infection vs untreated control,C. pneumoniae [1],significantly lower
same,suppression of infectious progeny production,C. pneumoniae [1],neither A1 nor A2 suppressed C. pneumoniae infectious progeny production
same,inhibition at 5 µM,C. pneumoniae EBs,≤ 50%
same,reduction in inclusion vacuole counts,C. pneumoniae [2],10–20%
same,inhibition at 3 µM,C. pneumoniae [2],~70%
NCCNC(=O)C(CN)(Cc1ccc2ccccc2c1)Cc1ccc2ccccc2c1 [A2],inhibition at 5 µM,C. pneumoniae strain K7; Chlamydia pneumoniae,100%
same,IC50,C. pneumoniae strain K7; Chlamydia pneumoniae,2 µM and 1.3 µg/mL
same,concentration that inhibits infectivity and interferes with inclusions,C. pneumoniae strain K7,below 5 μM
same,effect on host HL cell viability (in words),HL cells,no substantial effect on host HL cell viability
same,inclusion vacuole counts in the second passage of infection vs untreated control,C. pneumoniae [1],significantly lower
same,suppression of infectious progeny production,C. pneumoniae [1],neither A1 nor A2 suppressed C. pneumoniae infectious progeny production
same,TEM finding in infected HL cells,[3]; 24 hpi,affected inclusion vacuoles were visible
same,TEM finding in infected HL cells,[3]; 48 hpi,"smaller inclusions, which only contained fragments of RBs and EBs"
same,TEM finding in infected HL cells,[3]; 72 hpi,no RBs or EBs were present
same,inhibition at 5 µM,C. pneumoniae EBs,≤ 50%
same,reduction in inclusion vacuole counts,C. pneumoniae [2],20–30%
same,inhibition at 3 µM,C. pneumoniae [2],~80%
CC(C)(C)c1ccc(CC(CN)(Cc2ccc(C(C)(C)C)cc2)C(=O)NCCN)cc1 [A3],reduction in inclusion counts / inhibition against C. pneumoniae,C. pneumoniae strain K7,full inhibition
same,"viability at 72 h, 5 µM",[4],30.6%
same,inhibition at 5 µM,C. pneumoniae EBs,77%
CN(C)CCOC(=O)C(CN)(Cc1ccc(C(F)(F)F)cc1)Cc1ccc(C(F)(F)F)cc1 [A4],inhibition at 5 µM,C. pneumoniae strain K7; Chlamydia pneumoniae,23.2%
same,effect on host HL cell viability (in words),HL cells,no cytotoxic effects
same,inhibition at 5 µM,C. pneumoniae EBs,20%
CN(C)CCOC(=O)C(CN)(Cc1ccc2ccccc2c1)Cc1ccc2ccccc2c1 [A5],inhibition at 5 µM,C. pneumoniae strain K7; Chlamydia pneumoniae,89.8%
same,reduction of HL cell viability,HL cells,35.6%
same,inhibition at 5 µM,C. pneumoniae EBs,66%
CN(C)CCOC(=O)C(CN)(Cc1ccc(C(C)(C)C)cc1)Cc1ccc(C(C)(C)C)cc1 [A6],reduction in inclusion counts / inhibition against C. pneumoniae,C. pneumoniae strain K7,full inhibition
same,"viability at 72 h, 5 µM",[4],18.4%
same,inhibition at 5 µM,C. pneumoniae EBs,90%
"CO[C@H]1/C=C/O[C@@]2(C)Oc3c(C)c(O)c4c(O)c(c(/C=N/N5CCN(C)CC5)c(O)c4c3C2=O)NC(=O)/C(C)=C\C=C\[C@H](C)[C@H](O)[C@@H](C)[C@@H](O)[C@@H](C)[C@H](OC(C)=O)[C@@H]1C [Rifampicin, reference compound]",inhibition at 0.012 µM,"C. pneumoniae strain K7; Chlamydia pneumoniae, K7, positive control, 12 nM, read-out: inhibition in C. pneumoniae inclusion counts",95 to 98%
"CC[C@H]1OC(=O)[C@H](C)[C@@H](O[C@H]2C[C@@](C)(OC)[C@@H](O)[C@H](C)O2)[C@H](C)[C@@H](O[C@@H]2O[C@H](C)C[C@H](N(C)C)[C@H]2O)[C@](C)(O)C[C@@H](C)CN(C)[C@H](C)[C@@H](O)[C@]1(C)O [azithromycin, reference compound]",inhibition at 0.02 µM,"C. pneumoniae strain K7; Chlamydia pneumoniae, K7, positive control, 20 nM, read-out: inhibition in C. pneumoniae inclusion counts",95 to 98%

# — article PMC4900588, “Amphipathic β^2,2-Amino Acid Derivatives Suppress Infectivity and Disrupt the Intracellular Replication Cycle of Chlamydia pneumoniae” (PLoS ONE, 2016)
